The results in this text go back to US20250017964A1, “ENGINEERING OR INDUCING PDGF AND/OR PDGFR SIGNALING TO ENHANCE NK CELL THERAPY” (City of Hope, priority 2021, published 2025).

The test system of one assay is murine NK cells. Put plainly: PDGFRβ expression in murine splenic NK cells, flow cytometry. The assay is classed as cell-based, mouse. The protocol: FIGS. 7A-7F. […] Data shown are representative histograms and mean fluorescence intensity (MFI) of PDGFRα. […] Expression levels of PDGFRβ were examined by flow cytometry (n=6). […] Data shown are the percentages of PDGFRβ^+ NK cells among total NK cells (n=5). […] Data shown are representative histograms with MFI of PDGFRβ expression. (F) Expression levels of PDGFRβ on NK cells from IL-15 transgenic (Tg) mice were determined by flow cytometry. Data shown are representative histograms. Data represent three independent experiments.
Mouse NK cells were isolated from the spleen of C57BL/6J or IL-15 transgenic mice, using the EasySep Mouse NK Cell Isolation Kit ([…] Technologies) as previously described (11).
Cells were stained with the indicated cell-surface markers and/or fixed/permeabilized using a Fixation/Permeabilization Kit (eBioscience). For intracellular staining of IFN-γ and PDGF-D, 5 μg/ml Brefeldin A (BioLegend) was added for 4 h before cell harvest. Intracellular staining of Ki67 was performed by fixing and permeabilizing with the Foxp3/Transcription Factor Staining Kit (eBioscience). […] Data were analyzed using NovoExpress software (Agilent Technologies).
Background: Flow cytometry measures light scatter and fluorescence of single cells or particles in a stream.

Another assay concerns PDGF-D promoter. Put plainly: ChIP-qPCR, binding of p65 to the PDGF-D promoter. The assay is classed as cell-based, human. The note with it: IL-15-stimulated NK cells (1 h); not in resting NK cells. As to the method: FIGS. 5A-5J. IL-15 induces PDGF-D expression in an autocrine manner. (A) mRNA levels of PDGFA, PDGFB, PDGFC, and PDGF-D in T cells, B cells, and NK cells were analyzed using the BioGPS online tool. (B) mRNA levels of PDGFA, PDGFB, PDGFC, and PDGF-D in T cells, B cells, and NK cells were examined by qPCR (n=10). (C) Primary NK cells were treated with IL-15 (10 ng/ml) for the indicated times. mRNA levels of PDGF-D were examined by qPCR (n=3). (D-E) Representative dot plots and percentages of PDGF-D levels in NK cells after IL-15 (50 ng/ml) treatment for 24 h. Resting NK cells were used as control (n=5). […] (I-J) Binding of p65 to the PDGF-D promoter in IL-15 treated (I) or resting NK cells (J) as determined by ChIP-qPCR (n=3). Data represent three independent experiments. Data shown are means±SD. NS, not significant, *P<0.05, **P<0.01, ***P<0.001, and ****P<0.0001.
Primary NK cells were treated with IL-15 for 1 h. The cells were cross-linked in 1% formaldehyde and quenched with glycine buffer. ChIP assays were carried out using a Pierce Magnetic ChIP Kit (Cat No.26157, Thermo Scientific) according to the manufacturer's instructions. Digested chromatin was incubated overnight with a p65 ChIP-grade antibody (#8242, Cell Signaling Technology) or IgG control antibody (#3900, Cell Signaling Technology). The enriched chromatin was analyzed by qPCR using the following primers: […]
(Quantitative PCR measures a nucleic acid by following its amplification.)

Take “IL-15: recombinant human IL-15 (200-15); recombinant murine IL-15 in the mouse NK cell test”: in the assay on murine NK cells (long-term IL-15 stimulation, IL-15 transgenic mice), the “PDGFRβ on NK cells from IL-15 transgenic mice” value is “could not detect any PDGFRβ”. The “PDGFRβ expression in murine NK cells” value in the assay on murine NK cells (splenic NK cells of C57BL/6 mice, mouse cytokines 10 ng/ml, 24 h) is reported as “did not express PDGFRβ”. Also, the “p65 enrichment at the PDGF-D promoter versus normal IgG control” value in the assay with PDGF-D promoter is reported as “significantly enriched”.
